From US20050043346A1, “Pyridylpyrrole derivatives active as kinase inhibitors” (Pharmacia Italia S.p.A., priority 2003, published 2005)
“And” between values parts separate entries of the source, which are not always exact repeats. Equal values may be shown once. Where a name gives a salt, the structure may show the parent alone.

These molecules were tested against Cdc7/Dbf4 (Homo sapiens, UniProt O00311) (assay: Inhibition assay of Cdc7/Dbf4 activity (Dowex resin capture, MCM2 substrate)). Conditions: Cdc7/Dbf4, MCM2 substrate 6 μM, ATP 2 μM.
Cdc7/Dbf4, sequence (O00311 whole entry): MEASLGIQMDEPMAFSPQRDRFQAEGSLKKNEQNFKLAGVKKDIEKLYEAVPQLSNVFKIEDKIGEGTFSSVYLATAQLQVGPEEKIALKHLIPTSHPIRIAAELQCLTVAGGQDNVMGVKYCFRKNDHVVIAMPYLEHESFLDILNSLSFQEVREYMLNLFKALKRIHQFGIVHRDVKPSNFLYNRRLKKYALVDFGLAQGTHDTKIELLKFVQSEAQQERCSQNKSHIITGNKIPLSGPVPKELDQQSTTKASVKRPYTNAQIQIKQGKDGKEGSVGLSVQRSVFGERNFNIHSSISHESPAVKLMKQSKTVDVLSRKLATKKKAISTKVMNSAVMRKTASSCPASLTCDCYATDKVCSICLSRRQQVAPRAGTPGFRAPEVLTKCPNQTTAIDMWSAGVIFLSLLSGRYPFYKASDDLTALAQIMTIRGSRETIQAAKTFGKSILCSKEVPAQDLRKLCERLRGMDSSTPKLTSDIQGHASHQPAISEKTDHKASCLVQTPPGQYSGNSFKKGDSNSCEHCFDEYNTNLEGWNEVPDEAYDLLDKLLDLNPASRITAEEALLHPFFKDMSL
Cdc7/Dbf4, sequence (Q9UBU7 whole entry partner): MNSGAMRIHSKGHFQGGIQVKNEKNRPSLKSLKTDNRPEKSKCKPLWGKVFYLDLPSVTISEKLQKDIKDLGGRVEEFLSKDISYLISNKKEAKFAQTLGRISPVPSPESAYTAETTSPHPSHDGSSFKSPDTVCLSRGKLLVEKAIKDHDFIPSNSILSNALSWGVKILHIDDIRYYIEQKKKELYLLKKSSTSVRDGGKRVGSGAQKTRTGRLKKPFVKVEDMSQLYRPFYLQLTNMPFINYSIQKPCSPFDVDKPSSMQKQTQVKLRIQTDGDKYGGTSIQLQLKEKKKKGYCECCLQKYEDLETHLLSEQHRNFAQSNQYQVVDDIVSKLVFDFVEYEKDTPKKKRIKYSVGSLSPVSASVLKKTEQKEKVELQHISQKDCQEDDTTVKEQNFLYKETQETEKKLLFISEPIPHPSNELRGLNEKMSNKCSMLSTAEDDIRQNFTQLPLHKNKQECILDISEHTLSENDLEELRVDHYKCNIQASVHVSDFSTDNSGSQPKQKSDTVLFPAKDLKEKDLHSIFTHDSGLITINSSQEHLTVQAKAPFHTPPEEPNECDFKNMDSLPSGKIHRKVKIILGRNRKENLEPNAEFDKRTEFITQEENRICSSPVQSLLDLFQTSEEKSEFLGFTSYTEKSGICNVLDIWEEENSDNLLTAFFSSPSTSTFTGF
Assay type: biochemical
Procedure: The inhibiting activity of putative Cdc7 inhibitors and the potency of selected compounds is determined through a method of assay based on the use of Dowex resin capture technology. The assay consists of the transfer of radioactivity labeled phosphate moiety by the kinase to an acceptor substrate. The resulting 33P-labeled product is separated from unreacted tracer, transferred into a scintillation cocktail and light emitted is measured in a scintillation counter.
The inhibition assay of Cdc7/Dbf4 activity is performed according to the following protocol. The MCM2 substrate is trans-phosphorylated by the Cdc7/Dbf4 complex in the presence of ATP traced with γ^33-ATP. The reaction is stopped by addition of Dowex resin in the presence of formic acid. Dowex resin particles capture unreacted γ^33-ATP and drag it to the bottom of the well while ^33P phosphorylated MCM2 substrate remains in solution. The supernatant is collected, transferred into Optiplate plates and the extent of substrate phosphorylation is evaluated by β counting.
The inhibition assay of Cdc7/Dbf4 activity was performed in 96 wells plate according to the following protocol.
The solvent for test compounds contained 3% DMSO. (final concentration 1%) • 10 μl substrate MCM2 (6 μM final concentration), a mixture of cold ATP (2 μM final concentration) and radioactive ATP (1/5000 molar ratio with cold ATP). • 10 μl enzyme (Cdc7/Dbf4, 2 nM final concentration) that started the reaction. The buffer of the reaction consisted in 50 mM HEPES pH 7.9 containing 15 mM MgCl2, 2 mM DTT, 3 μM NaVO3, 2 mM glycerophosphate and 0.2 mg/ml BSA.
After incubation for 60 minutes at room temperature, the reaction was stopped by adding to each well 150 μl of Dowex resin in the presence of 150 mM formic acid. After another 60 min incubation, 50 μL of suspension were withdrawn and transferred into 96-well OPTIPLATEs containing 150 μl of MicroScint 40 (Packard); after 5-10 minutes shaking the plates were read for 1 min in a Packard TOP-Count radioactivity reader.
Experimental data were analyzed by the computer program Assay Explorer using the four parameter logistic equation: y=bottom+(top−bottom)/(1+10^((log IC50−x)*slope)) where x is the logarithm of the inhibitor concentration, y is the response; y starts at bottom and goes to top with a sigmoid shape.
An IC50 of 16 nM was found for `O=C1NC(Cc2ccccc2)Cc2[nH]c(-c3ccncc3)cc21` [(6R,6S)-6-benzyl-2-pyridin-4-yl-1,5,6,7-tetrahydro-4H-pyrrolo[3,2-c]pyridin-4-one] in this work.
An IC50 of 14 nM was found for `C[C@H]1Cc2[nH]c(-c3ccncc3)cc2C(=O)N1` [(6S)-6-methyl-2-pyridin-4-yl-1,5,6,7-tetrahydro-4H-pyrrolo[3,2-c]pyridin-4-one] in this work.
An IC50 of 5 nM was found for `CC1CNC(=O)c2cc(-c3ccncc3)[nH]c21` [(7R,7S)-7-methyl-2-pyridin-4-yl-1,5,6,7-tetrahydro-4H-pyrrolo[3,2-c]pyridin-4-one hydrochloride] in this work.
An IC50 of 7 nM was found for `CCC1(CC)CNC(=O)c2cc(-c3ccncc3)[nH]c21` [7,7-diethyl-2-pyridin-4-yl-1,5,6,7-tetrahydro-4H-pyrrolo[3,2-c]pyridin-4-one hydrochloride] in this work.
An IC50 of 20 nM was found for `CC(C)C1CNC(=O)c2cc(-c3ccncc3)[nH]c21` [(7R,7S)-7-isopropyl-2-pyridin-4-yl-1,5,6,7-tetrahydro-4H-pyrrolo[3,2-c]pyridin-4-one] in this work.
`O=C1NC(Cc2ccccc2)Cc2[nH]c(-c3ccncc3)cc21` (single isomer, unassigned) [(6R or 6S)-6-benzyl-2-pyridin-4-yl-1,5,6,7-tetrahydro-4H-pyrrolo[3,2-c]pyridin-4-one] was tested, and the IC50 was 20 nM and 9 nM.
An IC50 of 16 nM was found for `O=C1NCCc2[nH]c(-c3ccnc4[nH]ccc34)cc21` [2-(1H-pyrrolo[2,3-b]pyridin-4-yl)-1,5,6,7-tetrahydro-4H-pyrrolo[3,2-c]pyridin-4-one hydrochloride] in this work.
An IC50 of 3 nM was found for `CC1(C)CNC(=O)c2cc(-c3ccncc3)[nH]c21` [7,7-dimethyl-2-pyridin-4-yl-1,5,6,7-tetrahydro-4H-pyrrolo[3,2-c]pyridin-4-one hydrochloride] in this work.
With `CC1CNC(=O)c2cc(-c3ccncc3)[nH]c21` (single isomer, unassigned) [(7R or 7S)-7-methyl-2-pyridin-4-yl-1,5,6,7-tetrahydro-4H-pyrrolo[3,2-c]pyridin-4-one] the IC50 was 4 nM and 7 nM.
An IC50 of 3 nM was found for `CC(C)C1CNC(=O)c2cc(-c3ccncc3F)[nH]c21` [(7R,7S)-2-(3-fluoropyridin-4-yl)-7-isopropyl-1,5,6,7-tetrahydro-4H-pyrrolo[3,2-c]pyridin-4-one] in this work.
An IC50 of 1 nM was found for `CCC1CNC(=O)c2cc(-c3ccncc3F)[nH]c21` [(7R,7S)-2-(3-fluoropyridin-4-yl)-7-ethyl-1,5,6,7-tetrahydro-4H-pyrrolo[3,2-c]pyridin-4-one] in this work.
An IC50 of 8 nM was found for `O=C1NC(C2CCCCC2)Cc2[nH]c(-c3ccncc3)cc21` [(6R,6S)-6-cyclohexyl-2-pyridin-4-yl-1,5,6,7-tetrahydro-4H-pyrrolo[3,2-c]pyridin-4-one] in this work.
An IC50 of 17 nM was found for `O=C1NCC(Cc2ccccc2)c2[nH]c(-c3ccncc3)cc21` [(7R,7S)-7-benzyl-2-pyridin-4-yl-1,5,6,7-tetrahydro-4H-pyrrolo[3,2-c]pyridin-4-one] in this work.
An IC50 of 3 nM was found for `CCC(C)C1CNC(=O)c2cc(-c3ccncc3)[nH]c21` [(7R,7S)-7-sec-butyl-2-pyridin-4-yl-1,5,6,7-tetrahydro-4H-pyrrolo[3,2-c]pyridin-4-one] in this work.
An IC50 of 2 nM was found for `O=C1NC(C2CC2)Cc2[nH]c(-c3ccncc3)cc21` [(6R,6S)-6-cyclopropyl-2-pyridin-4-yl-1,5,6,7-tetrahydro-4H-pyrrolo[3,2-c]pyridin-4-one] in this work.
An IC50 of 26 nM was found for `O=C1NC(CCc2ccccc2)Cc2[nH]c(-c3ccncc3)cc21` [(6R,6S)-6-(2-phenylethyl)-2-pyridin-4-yl-1,5,6,7-tetrahydro-4H-pyrrolo[3,2-c]pyridin-4-one hydrochloride] in this work.
An IC50 of 5 nM was found for `CC(C)CC1CNC(=O)c2cc(-c3ccncc3)[nH]c21` [(7R,7S)-7-isobutyl-2-pyridin-4-yl-1,5,6,7-tetrahydro-4H-pyrrolo[3,2-c]pyridin-4-one hydrochloride] in this work.
An IC50 of 4 nM was found for `CC(C)CC1CNC(=O)c2cc(-c3ccncc3F)[nH]c21` [(7R,7S)-2-(3-fluoropyridin-4-yl)-7-isobutyl-1,5,6,7-tetrahydro-4H-pyrrolo[3,2-c]pyridin-4-one] in this work.
An IC50 of 3 nM was found for `Cc1c(-c2ccncc2)[nH]c2c1C(=O)NCC2` [3-methyl-2-pyridin-4-yl-1,5,6,7-tetrahydro-4H-pyrrolo[3,2-c]pyridin-4-one hydrochloride] in this work.
An IC50 of 8 nM was found for `O=C1NCCc2[nH]c(-c3ccncc3F)cc21` [2-(3-fluoropyridin-4-yl)-1,5,6,7-tetrahydro-4H-pyrrolo[3,2-c]pyridin-4-one hydrochloride] in this work.
An IC50 of 9 nM was found for `CC(C)C1Cc2[nH]c(-c3ccncc3)cc2C(=O)N1` [(6R,6S)-6-isopropyl-2-pyridin-4-yl-1,5,6,7-tetrahydro-4H-pyrrolo[3,2-c]pyridin-4-one hydrochloride] in this work.
An IC50 of 2 nM was found for `O=C1NCC2(CC2)c2[nH]c(-c3ccncc3)cc21` [2′-pyridin-4-yl-5′,6′-dihydrospiro[cyclopropane-1,7′-pyrrolo[3,2-c]pyridin]-4′(1′H)-one] in this work.

The molecules below were run against cdk2/Cyclin A (Homo sapiens, UniProt P24941) (assay: Inhibition assay of cdk2/Cyclin A activity (SPA)). Conditions: Cyclin A/CDK2 complex, histone H1 substrate, 10 μM ATP.
Assay type: biochemical
Procedure: The inhibiting activity of putative cdk/cyclin inhibitors and the potency of selected compounds may be determined through a method of assay based on the use of the SPA technology (Amersham Pharmacia Biotech).
The assay consists of the transfer of radioactivity labelled phosphate moiety by the kinase to a biotinylated substrate. The resulting 33P-labelled biotinylated product is allowed to bind to streptavidin-coated SPA beads (biotin capacity 130 pmol/mg), and light emitted was measured in a scintillation counter.
Kinase reaction: 4 μM in house biotinylated histone H1 (Sigma #H-5505) substrate, 10 μM ATP (0.1 microCi P^33γ-ATP), 1.1 nM Cyclin A/CDK2 complex, inhibitor in a final volume of 30 μl buffer (TRIS HCl 10 mM pH 7.5, MgCl2 10 mM, DTT 7.5 mM+0.2 mg/ml BSA) were added to each well of a 96 U bottom. After incubation for 60 min at room temperature, the reaction was stopped by addition of 100 μl PBS buffer containing 32 mM EDTA, 500 μM cold ATP, 0.1% Triton X100 and 10 mg/ml streptavidin coated SPA beads. After 20 min incubation, 110 μL of suspension were withdrawn and transferred into 96-well OPTIPLATEs containing 100 μl of 5M CsCl. After 4 hours, the plates were read for 2 min in a Packard TOP-Count radioactivity reader.
IC50 determination: inhibitors were tested at different concentrations ranging from 0.0015 to 10 μM. […]
An IC50 of 40 nM was found for `O=C1NCCc2[nH]c(-c3ccnc(NC4CCCC4)c3)cc21` [2-[2-(cyclopentylamino)pyridin-4-yl]-1,5,6,7-tetrahydro-4H-pyrrolo[3,2-c]pyridin-4-one] in this work.
